Among the data in ChEMBL document CHEMBL1122090, “Species- or isozyme-specific enzyme inhibitors. 7. Selective effects in inhibitions of rat adenylate kinase isozymes by adenosine 5'-phosphate derivatives” (J Med Chem, 1982) are Relative Vmax, Inhibition index and Relative inhibition index values, retold here.

For assay [1], the target named is Adenylate kinase 2, mitochondrial (Rattus norvegicus) (UniProt P29410). Nature of the assay: Relative Vmax value to rat adenylate kinase II.
Assay [2] addresses GTP:AMP phosphotransferase AK3, mitochondrial (Rattus norvegicus) (UniProt P29411). Nature of the assay: Relative Vmax value to rat adenylate kinase III.
Assay [3] addresses T1, Adenylate kinase isoenzyme 1 (Rattus norvegicus) (UniProt P39069).
T1 sequence (whole entry): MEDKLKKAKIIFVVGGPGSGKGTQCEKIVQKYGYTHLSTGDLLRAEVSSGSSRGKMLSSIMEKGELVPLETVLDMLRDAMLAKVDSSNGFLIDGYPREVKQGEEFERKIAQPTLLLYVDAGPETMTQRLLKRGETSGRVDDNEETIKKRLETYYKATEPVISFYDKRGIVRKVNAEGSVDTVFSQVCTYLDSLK
Nature of the assay: Relative Vmax value to Adenylate kinase M isoenzyme (adenylate kinase 1, AK1).

The target in assay [4] is GTP:AMP phosphotransferase AK3, mitochondrial (Rattus norvegicus) (UniProt P29411). Nature of the assay: Inhibition index was the ratio between KM of AMP and Ki of AK III. It is filed as functional.
Assay [5] concerns the target T1, Adenylate kinase isoenzyme 1 (Rattus norvegicus). Nature of the assay: Inhibition index was the ratio between KM of AMP and Ki of AK M. It is filed as functional.
A short description of assay [6]: Relative inhibition index was the ratio between AK-M and AK III. It is filed as functional.
A short description of assay [7]: Relative inhibition index was the ratio between AK-M and AK II. In kind it is functional.
The target in assay [8] is Adenylate kinase 2, mitochondrial (Rattus norvegicus) (UniProt P29410). Nature of the assay: Inhibition index was the ratio between KM of AMP and Ki of AK II. It is filed as functional.

GTP:AMP phosphotransferase AK3, mitochondrial (Rattus norvegicus), sequence (P29411 whole entry): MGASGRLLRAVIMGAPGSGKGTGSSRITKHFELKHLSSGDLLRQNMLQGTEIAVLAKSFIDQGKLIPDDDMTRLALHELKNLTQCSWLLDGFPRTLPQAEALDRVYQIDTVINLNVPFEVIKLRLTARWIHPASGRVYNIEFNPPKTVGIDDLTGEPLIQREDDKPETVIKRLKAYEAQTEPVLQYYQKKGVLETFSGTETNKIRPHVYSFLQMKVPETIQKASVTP

Consider `Nc1ncnc2c1ncn2C(CO)OC(CO)COP(=O)(O)O` (configuration not stated), for which the Relative Vmax in assay [1], in assay [2] and in assay [3] was 0 throughout.

On to `CC(=O)NCCNc1ncnc2c1ncn2C1O[C@H](COP(=O)(O)O)[C@@H](O)[C@H]1O` (some centres not stated), for which the Relative Vmax in assay [1], in assay [2] and in assay [3] was 0 throughout.

On to `Nc1ncnc2c1nc(Br)n2[C@@H]1O[C@H](COP(=O)(O)O)[C@@H](O)[C@H]1O`, for which the Relative Vmax in assay [1], in assay [2] and in assay [3] was 0 throughout.

Take `CCC1O[C@@H]2[C@H](O1)[C@@H](COP(=O)(O)O)O[C@H]2n1cnc2c(N)ncnc21` (some centres not stated): the figures for the Inhibition index in assay [4], in assay [5] and in assay [8] were 0.032, 0.089 and 0.03, respectively. The Relative Vmax in assay [1], in assay [2] and in assay [3] was 0 throughout. The Relative inhibition index in assay [6] came out at 2.8; in assay [7] it was 3.

In the case of `Nc1ncnc2c1ncn2[C@@H]1O[C@H](COP(=O)(O)O)[C@@H](O)[C@H]1O`, the Relative Vmax in assay [1], in assay [2] and in assay [3] was 100 in each case.

On to `Cn1cnc2c(ncn2[C@@H]2O[C@H](COP(=O)(O)O)[C@@H](O)[C@H]2O)c1=N`, for which the Relative Vmax in assay [1], in assay [2] and in assay [3] was 0 throughout.

As to `CNc1nc(N)c2ncn([C@@H]3O[C@H](COP(=O)(O)O)[C@@H](O)[C@H]3O)c2n1`, the Inhibition index in assay [4] stood at 0.022; in assay [5], 0.2; in assay [8], 0.027. Also, the figures for the Relative Vmax in assay [1], in assay [2] and in assay [3] were 9.7, 10 and 0.7, respectively. Also, the Relative inhibition index in assay [6] was 9.1; in assay [7], 7.4.

As to `CCNc1nc(N)c2ncn([C@@H]3O[C@H](COP(=O)(O)O)[C@@H](O)[C@H]3O)c2n1`, the Inhibition index in assay [4] is 0.015; in assay [5] it was 0.14. In assay [6], the Relative inhibition index came to 9.3. The Relative Vmax in assay [2] is 2.7; in assay [3], 0.4.

As for `CN(C)c1nc(N)c2ncn(C3O[C@H](COP(=O)(O)O)[C@@H](O)[C@H]3O)c2n1` (some centres not stated), the Inhibition index amounted to 0.017 in assay [4], 0.077 in assay [5] and 0.014 in assay [8]. Further, the Relative Vmax was 0 in assay [1], 0 in assay [2] and 0.04 in assay [3]. The Relative inhibition index in assay [6] amounted to 4.5; in assay [7], 5.5.

Take `CCSc1nc2c(N)ncnc2n1C1O[C@H](COP(=O)(O)O)[C@@H](O)[C@H]1O` (some centres not stated): the Relative Vmax in assay [1], in assay [2] and in assay [3] was 0 each time.

Turning to `COP(=O)(O)C[C@H]1OC(n2cnc3c(N)ncnc32)[C@H](O)[C@@H]1O` (some centres not stated), the Relative Vmax in assay [1], in assay [2] and in assay [3] was 0 in each case.

Regarding `CSc1nc(N)c2ncn([C@@H]3O[C@H](COP(=O)(O)O)[C@@H](O)[C@H]3O)c2n1`, the Relative Vmax in assay [1], in assay [2] and in assay [3] was above 0 in each case.

As for `C[C@@H]1[C@H](O)[C@@H](COP(=O)(O)O)O[C@H]1n1cnc2c(N)ncnc21`, the Inhibition index in assay [4] turned out to be 0.1; in assay [5], 0.11; in assay [8] it was 0.088. Besides, the Relative Vmax in assay [1] turned out to be 29; in assay [2], 21; in assay [3], 5.6. Further, the Relative inhibition index in assay [6] came out at 1.1; in assay [7], 1.2.

`CC1O[C@@H]2[C@H](O1)[C@@H](COP(=O)(O)O)O[C@H]2n1cnc2c(N)ncnc21` (some centres not stated): the Inhibition index was determined as 0.028 in assay [4], 0.13 in assay [5] and 0.03 in assay [8]. Further, the Relative Vmax in assay [1], in assay [2] and in assay [3] was 0 each time. Moreover, the Relative inhibition index in assay [6] was found to be 4.6; in assay [7], 4.3.

Take `C=CC[C@]1(COP(=O)(O)O)OC(n2cnc3c(N)ncnc32)[C@H](O)[C@@H]1O` (some centres not stated): the figures for the Inhibition index in assay [4], in assay [5] and in assay [8] were 0.12, 0.97 and 0.21, respectively. Moreover, the Relative Vmax in assay [1], in assay [2] and in assay [3] was above 0 each time. The Relative inhibition index in assay [6] was found to be 8.1; in assay [7], 4.6.

As to `CO[C@@H]1[C@H](O)[C@@H](COP(=O)(O)O)O[C@H]1n1cnc2c(N)ncnc21`, the Inhibition index was determined as 0.017 in assay [4], 0.14 in assay [5] and 0.022 in assay [8]. For the same compound, the Relative Vmax in assay [1], in assay [2] and in assay [3] was above 0 throughout. Also, the results for the Relative inhibition index in assay [6] and in assay [7] were 8.2 and 6.4, respectively.

On to `Nc1ncnc2c1ncn2[C@@H]1O[C@H](CCP(=O)(O)O)[C@@H](O)[C@H]1O`, for which the Inhibition index in assay [4] was 0.036; in assay [5], 0.14; in assay [8], 0.032. In addition, the Relative Vmax came out at 11.2 in assay [1], 21 in assay [2] and 2.2 in assay [3]. For the same compound, the Relative inhibition index in assay [6] was found to be 3.9; in assay [7], 4.4.

Turning to `C[C@@H](OP(=O)(O)O)[C@H]1OC(n2cnc3c(N)ncnc32)[C@H](O)[C@@H]1O` (some centres not stated), the Inhibition index in assay [4] amounted to 0.008; in assay [8], 0.0082. The Relative Vmax was above 0 in assay [1], above 0 in assay [2] and 0 in assay [3].

Consider `Nc1nc(N)c2ncn([C@@H]3O[C@H](COP(=O)(O)O)[C@@H](O)[C@H]3O)c2n1`, for which the Inhibition index came to 0.042 in assay [4], 0.17 in assay [5] and 0.05 in assay [8]. For the same compound, the Relative Vmax in assay [1] was found to be 18; in assay [2], 24; in assay [3], 7.1. Further, the results for the Relative inhibition index in assay [6] and in assay [7] were 4 and 3.4, respectively.

As for `Nc1ncnc2c1ncn2[C@@H]1O[C@H](COS(=O)(=O)O)[C@@H](O)[C@H]1O`, the Inhibition index in assay [4] stood at 0.11; in assay [5], 0.12. The Relative Vmax in assay [1], in assay [2] and in assay [3] was 0 throughout. In addition, in assay [6], the Relative inhibition index is 1.1.

With `CC[C@@H](OP(=O)(O)O)[C@H]1OC(n2cnc3c(N)ncnc32)[C@H](O)[C@@H]1O` (some centres not stated), the Inhibition index in assay [4] and in assay [8] was 0.015 in each case. In addition, the Relative Vmax in assay [1], in assay [2] and in assay [3] was 0 in each case.

Regarding `CCC[C@@H](OP(=O)(O)O)[C@H]1OC(n2cnc3c(N)ncnc32)[C@H](O)[C@@H]1O` (some centres not stated), the Inhibition index in assay [4] was found to be 0.021; in assay [8], 0.025. Further, the Relative Vmax in assay [1], in assay [2] and in assay [3] was 0 each time.
